Measurements published in the supplement of paper PMC4862054.
“And” between values parts separate entries of the source, which are not always exact repeats. Equal values may be shown once.

Columns and labels:
Settings in all cases: incubation time: 72 h
BT-549 [1] = test: normalised viability (% of control), CellTiter-Blue; higher = more viable cells (about 100 = DMSO control)
Procedure, shortened: (§1)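 Vehicle (100) and a positive kill control (0) anchored the normalisation of each plate, and Z'-factor was used for quality control. Breast cancer cell lines in 20 µl suspension were incubated 72 h over compound in 5 µl medium in 384-well plates, followed by CellTiter-Blue at 560/590 nm. The value is normalised viability at a single listed concentration of the series.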

CAL-120 [2] = test: as above
Procedure, shortened: as §1

CAL-148 [3] = test: as above
Procedure, shortened: as §1

CAL-51 [4] = test: as above
Procedure, shortened: as §1

CAL-85-1 [5] = test: as above
Procedure, shortened: as §1

DU-4475 [6] = test: as above
Procedure, shortened: as §1

HCC1143 [7] = test: as above
Procedure, shortened: as §1

HCC1599 [8] = test: as above
Procedure, shortened: as §1

HCC1937 [9] = test: as above
Procedure, shortened: as §1

BT-474 = test: drug sensitivity score (DSS), CellTiter-Glo (DSS (AUC-based score)); higher = stronger drug effect (viability inhibition or cytotoxicity); extreme values may be limits of the assay
Procedure, shortened: (§2)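 Each compound occupied 5 concentrations in 10-fold steps over its own 10,000-fold range in 384-well plates, into which breast cancer cell lines were seeded as 20 µl suspension. Following 72 h of incubation, CellTox Green fluorescence (485/520 nm) was measured, and CellTiter-Glo luminescence was measured after 10 min at room temperature. Plates were individually normalised to 0.1 % DMSO and a positive kill control. From the area under the fitted dose-response curve, a drug sensitivity score was calculated.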

BT-549 [10] = test: as above
Procedure, shortened: as §2

CAL-120 [11] = test: as above
Procedure, shortened: as §2

CAL-148 [12] = test: as above
Procedure, shortened: as §2

CAL-51 [13] = test: as above
Procedure, shortened: as §2

CAL-85-1 [14] = test: as above
Procedure, shortened: as §2

DU-4475 [15] = test: as above
Procedure, shortened: as §2

HCC1143 [16] = test: as above
Procedure, shortened: as §2

HCC1599 [17] = test: as above
Procedure, shortened: as §2

HCC1937 [18] = test: as above
Procedure, shortened: as §2

HDQ-P1 = test: as above
Procedure, shortened: as §2

Hs578T = test: as above
Procedure, shortened: as §2

MCF-10A = test: as above
Procedure, shortened: as §2

MDA-MB-436 = test: as above
Procedure, shortened: as §2

MDA-MB-453 = test: as above
Procedure, shortened: as §2

MDA-MB-468 = test: as above
Procedure, shortened: as §2

MFM-223 = test: as above
Procedure, shortened: as §2

SK-BR-3 = test: as above
Procedure, shortened: as §2

Compound `COc1ncc(-c2ccc3nccc(-c4ccnnc4)c3c2)cc1NS(=O)(=O)c1ccc(F)cc1F` has a normalised viability (BT-549 [1]; 10 nM) of 95.9%, a normalised viability (CAL-120 [2]; 10 nM) of 60.2% and a normalised viability (CAL-148 [3]; 1 nM) of 111%. The normalised viability (CAL-51 [4]; 1 nM) was 85.7%, the normalised viability (CAL-85-1 [5]; 1 nM) was 88.8% and the normalised viability (DU-4475 [6]; 1 nM) was 88.1%. It also gave a normalised viability (HCC1143 [7]; 10 nM) of 68.2%, a normalised viability (HCC1599 [8]; 10 nM) of 57.1% and a normalised viability (HCC1937 [9]; 10 nM) of 78.5%. It also gave a drug sensitivity score (BT-474) of 11.2, a drug sensitivity score (BT-549 [10]) of 16.8 and a drug sensitivity score (CAL-120 [11]) of 13. The drug sensitivity score (CAL-148 [12]) was 12.2, the drug sensitivity score (CAL-51 [13]) was 15.8 and the drug sensitivity score (CAL-85-1 [14]) was 16.4. The drug sensitivity score (DU-4475 [15]) was 7.12, the drug sensitivity score (HCC1143 [16]) was 13.3 and the drug sensitivity score (HCC1599 [17]) was 9.77. It also gave a drug sensitivity score (HCC1937 [18]) of 10.6, a drug sensitivity score (HDQ-P1) of 19.4 and a drug sensitivity score (Hs578T) of 14. The drug sensitivity score (MCF-10A) was 17.5, the drug sensitivity score (MDA-MB-436) was 11.6 and the drug sensitivity score (MDA-MB-453) was 19.4. It also gave a drug sensitivity score (MDA-MB-468) of 13.9, a drug sensitivity score (MFM-223) of 14.3 and a drug sensitivity score (SK-BR-3) of 20.6.
`COc1cc(Nc2ncc(F)c(Nc3ccc4c(n3)NC(=O)C(C)(C)O4)n2)cc(OC)c1OC` [R406] showed a normalised viability (BT-549 [1]; 100 nM) of 105%, a normalised viability (CAL-120 [2]; 100 nM) of 90.8% and a normalised viability (CAL-148 [3]; 10 nM) of 91.2%. The normalised viability (CAL-51 [4]; 10 nM) was 107%, the normalised viability (CAL-85-1 [5]; 10 nM) was 90.2% and the normalised viability (DU-4475 [6]; 10 nM) was 122%. It also gave a normalised viability (HCC1143 [7]; 100 nM) of 84.4%, a normalised viability (HCC1599 [8]; 100 nM) of 102% and a normalised viability (HCC1937 [9]; 100 nM) of 125%.
`CS(=O)(=O)CCNCc1ccc(-c2ccc3ncnc(Nc4ccc(OCc5cccc(F)c5)c(Cl)c4)c3c2)o1` [Lapatinib] was tested, and the normalised viability (BT-549 [1]; 100 nM) was 85.1% and 107%, the normalised viability (CAL-120 [2]; 100 nM) was 84.9% and 101% and the normalised viability (CAL-148 [3]; 10 nM) was 86% and 86.5%. For the same compound, the normalised viability (CAL-51 [4]; 10 nM) was 116% and 104%, the normalised viability (CAL-85-1 [5]; 10 nM) was 94.6% and 101% and the normalised viability (DU-4475 [6]; 10 nM) was 111% and 109%. For the same compound, the normalised viability (HCC1143 [7]; 100 nM) was 82.1% and 95.4%, the normalised viability (HCC1599 [8]; 100 nM) was 93.9% and 94.5% and the normalised viability (HCC1937 [9]; 100 nM) was 97.1% and 106%. The drug sensitivity score (BT-474) was 0, the drug sensitivity score (BT-549 [10]) was 0 and the drug sensitivity score (CAL-120 [11]) was 0. For the same compound, the drug sensitivity score (CAL-148 [12]) was 0, the drug sensitivity score (CAL-51 [13]) was 0 and the drug sensitivity score (CAL-85-1 [14]) was 1.7. For the same compound, the drug sensitivity score (DU-4475 [15]) was 0, the drug sensitivity score (HCC1143 [16]) was 0 and the drug sensitivity score (HCC1599 [17]) was 0. For the same compound, the drug sensitivity score (HCC1937 [18]) was 0, the drug sensitivity score (HDQ-P1) was 2.38 and the drug sensitivity score (Hs578T) was 0. For the same compound, the drug sensitivity score (MCF-10A) was 4.31, the drug sensitivity score (MDA-MB-436) was 0 and the drug sensitivity score (MDA-MB-453) was 1.41. It also gave a drug sensitivity score (MDA-MB-468) of 0, a drug sensitivity score (MFM-223) of 0 and a drug sensitivity score (SK-BR-3) of 10.8.
With `c1ccc(C2CN3CCSC3=N2)cc1` (centres undefined) [Tetramisole] the normalised viability (BT-549 [1]; 100 nM) was 83%, the normalised viability (CAL-120 [2]; 100 nM) was 120% and the normalised viability (CAL-148 [3]; 10 nM) was 114%. It also gave a normalised viability (CAL-51 [4]; 10 nM) of 95.2%, a normalised viability (CAL-85-1 [5]; 10 nM) of 103% and a normalised viability (DU-4475 [6]; 10 nM) of 87.6%. For the same compound, the normalised viability (HCC1143 [7]; 100 nM) was 116%, the normalised viability (HCC1599 [8]; 100 nM) was 107% and the normalised viability (HCC1937 [9]; 100 nM) was 108%.
For `Cn1c(=O)c(F)c(Nc2ccc(I)cc2F)c2c(=O)n(C[C@@H](O)CO)cnc21` [TAK-733], the normalised viability (BT-549 [1]; 10 nM) was 97.4%, the normalised viability (CAL-120 [2]; 10 nM) was 92.7% and the normalised viability (CAL-148 [3]; 1 nM) was 92.6%. The normalised viability (CAL-51 [4]; 1 nM) was 103%, the normalised viability (CAL-85-1 [5]; 1 nM) was 107% and the normalised viability (DU-4475 [6]; 1 nM) was 98%. The normalised viability (HCC1143 [7]; 10 nM) was 77%, the normalised viability (HCC1599 [8]; 10 nM) was 86.2% and the normalised viability (HCC1937 [9]; 10 nM) was 100%. The drug sensitivity score (BT-474) was 6.85, the drug sensitivity score (BT-549 [10]) was 0.999 and the drug sensitivity score (CAL-120 [11]) was 4.39. For the same compound, the drug sensitivity score (CAL-148 [12]) was 0, the drug sensitivity score (CAL-51 [13]) was 8.36 and the drug sensitivity score (CAL-85-1 [14]) was 6.4. The drug sensitivity score (DU-4475 [15]) was 25.4, the drug sensitivity score (HCC1143 [16]) was 0 and the drug sensitivity score (HCC1599 [17]) was 0. It also gave a drug sensitivity score (HCC1937 [18]) of 3, a drug sensitivity score (HDQ-P1) of 10.1 and a drug sensitivity score (Hs578T) of 0. It also gave a drug sensitivity score (MCF-10A) of 18.5, a drug sensitivity score (MDA-MB-436) of 1.27 and a drug sensitivity score (MDA-MB-453) of 0. For the same compound, the drug sensitivity score (MDA-MB-468) was 3.59, the drug sensitivity score (MFM-223) was 0.644 and the drug sensitivity score (SK-BR-3) was 0.
For `O=c1[nH]c(=O)n([C@H]2C[C@H](O)[C@@H](CO)O2)cc1F` [Floxuridine], the normalised viability (BT-549 [1]; 100 nM) was 93.4%, the normalised viability (CAL-120 [2]; 100 nM) was 66.2% and the normalised viability (CAL-148 [3]; 10 nM) was 99.8%. The normalised viability (CAL-51 [4]; 10 nM) was 91.8%, the normalised viability (CAL-85-1 [5]; 10 nM) was 93.1% and the normalised viability (DU-4475 [6]; 10 nM) was 114%. It also gave a normalised viability (HCC1143 [7]; 100 nM) of 101%, a normalised viability (HCC1599 [8]; 100 nM) of 97.2% and a normalised viability (HCC1937 [9]; 100 nM) of 84.5%. It also gave a drug sensitivity score (BT-474) of 5.99, a drug sensitivity score (BT-549 [10]) of 1.93 and a drug sensitivity score (CAL-120 [11]) of 11.1. The drug sensitivity score (CAL-148 [12]) was 0, the drug sensitivity score (CAL-51 [13]) was 17.3 and the drug sensitivity score (CAL-85-1 [14]) was 17.5. For the same compound, the drug sensitivity score (DU-4475 [15]) was 1.58, the drug sensitivity score (HCC1143 [16]) was 0 and the drug sensitivity score (HCC1599 [17]) was 9.95. The drug sensitivity score (HCC1937 [18]) was 10.3, the drug sensitivity score (HDQ-P1) was 2.32 and the drug sensitivity score (Hs578T) was 24.7. It also gave a drug sensitivity score (MCF-10A) of 0, a drug sensitivity score (MDA-MB-436) of 9.72 and a drug sensitivity score (MDA-MB-453) of 0. It also gave a drug sensitivity score (MDA-MB-468) of 6.72, a drug sensitivity score (MFM-223) of 0 and a drug sensitivity score (SK-BR-3) of 12.
`CN(c1ccccc1CNc1nc(Nc2ccc3c(c2)CC(=O)N3)ncc1C(F)(F)F)S(C)(=O)=O` showed a drug sensitivity score (BT-474) of 7.07, a drug sensitivity score (BT-549 [10]) of 5.64 and a drug sensitivity score (CAL-120 [11]) of 4.65. For the same compound, the drug sensitivity score (CAL-148 [12]) was 1.24, the drug sensitivity score (CAL-51 [13]) was 10.6 and the drug sensitivity score (CAL-85-1 [14]) was 6.85. It also gave a drug sensitivity score (DU-4475 [15]) of 7.61, a drug sensitivity score (HCC1143 [16]) of 4.97 and a drug sensitivity score (HCC1599 [17]) of 3.99. It also gave a drug sensitivity score (HCC1937 [18]) of 2.73, a drug sensitivity score (HDQ-P1) of 7.23 and a drug sensitivity score (Hs578T) of 4.29. The drug sensitivity score (MCF-10A) was 9.21, the drug sensitivity score (MDA-MB-436) was 2.86 and the drug sensitivity score (MDA-MB-453) was 0. It also gave a drug sensitivity score (MDA-MB-468) of 8.4, a drug sensitivity score (MFM-223) of 2.28 and a drug sensitivity score (SK-BR-3) of 5.83.
